# Data reported in patent publication EP4656642A1, “ESTROGEN RECEPTOR PROTEOLYSIS TARGETING CHIMERA COMPOUND AND USE THEREOF” (GAN & LEE PHARM CO., LTD, priority 2023, dated 2024).
# What was measured:
# Assay type in all cases: cell-based
# MCF-7 cells = assay: Inhibition of cell proliferation of MCF-7 cells (CCK-8, 9 days); conditions: treated for 9 days, CCK-8 kit (Table 6)
# In short: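 MCF-7 cells seeded at 800 cells/well in DMEM with 10% FBS, exposed to a range of compound concentrations for 9 days at 37°C, 5% CO2. Viability read by CCK-8; IC50 derived for proliferation inhibition.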
# ERα [1] = target: T1, ERα (Homo sapiens, UniProt P03372); assay: Degradation of ERα in T-47D cells (immunoblotting, 4 h); parameters: host or cells: T-47D
# T1 sequence (P03372 1-595): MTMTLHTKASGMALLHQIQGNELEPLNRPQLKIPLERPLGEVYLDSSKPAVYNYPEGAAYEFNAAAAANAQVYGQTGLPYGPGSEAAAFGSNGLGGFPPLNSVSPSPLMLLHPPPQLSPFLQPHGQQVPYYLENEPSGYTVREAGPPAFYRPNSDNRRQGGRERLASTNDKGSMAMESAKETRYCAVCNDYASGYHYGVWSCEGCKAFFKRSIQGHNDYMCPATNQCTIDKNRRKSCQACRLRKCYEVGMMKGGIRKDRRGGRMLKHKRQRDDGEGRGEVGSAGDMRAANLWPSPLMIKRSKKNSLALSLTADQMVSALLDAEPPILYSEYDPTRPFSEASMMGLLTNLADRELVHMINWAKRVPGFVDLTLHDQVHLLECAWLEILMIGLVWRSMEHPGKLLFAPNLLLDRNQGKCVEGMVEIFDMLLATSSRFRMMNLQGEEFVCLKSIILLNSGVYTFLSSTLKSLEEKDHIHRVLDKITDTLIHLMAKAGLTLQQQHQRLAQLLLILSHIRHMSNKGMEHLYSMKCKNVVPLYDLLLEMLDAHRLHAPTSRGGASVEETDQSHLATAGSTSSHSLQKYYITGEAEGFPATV
# In short: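 T-47D cells were treated with compound (final 0.15-1000 nM, DMSO) for 4 h at 37°C, 5% CO2. Cells were lysed in RIPA buffer with protease inhibitor, and ERα protein in the cleared lysate was measured by immunoblotting.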
# ERα [2] = target: T1, ERα; assay: Degradation of ERα in MCF-7 cells (immunoblotting, 4 h)
# In short: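 MCF-7 cells treated 4 h at 37°C with compounds at 0.15-1000nM final. ERα in lysates measured by immunoblot, with band grayscale normalized to an internal reference protein. Degradation rate calculated against DMSO-treated control.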
Compound,IC50 (MCF-7 cells) [nM],Degradation rate (%) of ERα in T-47D cells (ERα [1]; 1nM compound) [%],Degradation rate (%) of ERα in T-47D cells (ERα [1]; 10nM compound) [%],Degradation rate (%) of ERα in MCF-7 cells (ERα [2]; 1nM compound) [%],Degradation rate (%) of ERα in MCF-7 cells (ERα [2]; 10nM compound) [%]
O=C1CCC(N2Cc3c(ccc4c3OCC43CCN(C[C@H]4CC[C@@H](C#Cc5ccc([C@@H]6c7ccc(O)cc7CC[C@@H]6c6ccccc6)cc5)CC4)CC3)C2=O)C(=O)N1 (some centres unmarked) [H53],41.9,5,35,10,14
O=C1CCC(N2Cc3c(ccc4c3OCC43CCN(CC(=O)N(CC4CC4)C4CC5(CCN(c6ccc([C@@H]7c8ccc(O)cc8CC[C@@H]7c7ccccc7)cc6)CC5)C4)CC3)C2=O)C(=O)N1 (some centres unmarked) [H54],260,24,60,11,44
CCN(C(=O)CN1CCC2(CC1)COc1c2ccc2c1CN(C1CCC(=O)NC1=O)C2=O)C1CC2(CCN(c3ccc([C@@H]4c5ccc(O)cc5CC[C@@H]4c4ccccc4)cc3)CC2)C1 (some centres unmarked) [H55],199,56,83,28,62
CN(C(=O)CN1CCC2(CC1)COc1cc3c(cc12)CN(C1CCC(=O)NC1=O)C3=O)C1CCC2(CC1)CN(c1ccc([C@@H]3c4ccc(O)cc4CC[C@@H]3c3ccccc3)cc1)C2 (some centres unmarked) [H56],2250,24,47,-5,21
C[C@@H]1Cc2c(ccc3[nH]ncc23)C(c2ccc(N3CCC4(CC3)CC(N3CC[C@@H](N5CCC6(CC5)COc5c6ccc6c5CN(C5CCC(=O)NC5=O)C6=O)[C@@H](F)C3)C4)cn2)N1CC(F)(F)F (some centres unmarked) [H58],2320,53,84,50,70
O=C1CCC(N2Cc3c(ccc4c3OCC43CCN(CC(=O)N4CCC(Oc5ccc([C@@H]6c7ccc(O)cc7CC[C@@H]6c6ccccc6)cc5)CC4)CC3)C2=O)C(=O)N1 (some centres unmarked) [H59],7360,61,46,40,34
O=C1CCC(N2Cc3c(ccc4c3OCC43CCN(C(=O)CN4CCC(Oc5ccc([C@@H]6c7ccc(O)cc7CC[C@@H]6c6ccccc6)cc5)CC4)CC3)C2=O)C(=O)N1 (some centres unmarked) [H60],106,41,37,38,35
O=C1CCC(N2Cc3c(ccc4c3OCC43CCN(C(=O)[C@H]4C[C@@H](OC5CCN(c6ccc([C@@H]7c8ccc(O)cc8CC[C@@H]7c7ccccc7)cc6)CC5)C4)CC3)C2=O)C(=O)N1 (some centres unmarked) [H61],4020,63,76,37,40

# More lines, now with the values ahead:
IC50 (MCF-7 cells) [nM],Degradation rate (%) of ERα in T-47D cells (ERα [1]; 1nM compound) [%],Degradation rate (%) of ERα in T-47D cells (ERα [1]; 10nM compound) [%],Degradation rate (%) of ERα in MCF-7 cells (ERα [2]; 1nM compound) [%],Degradation rate (%) of ERα in MCF-7 cells (ERα [2]; 10nM compound) [%],Compound
11.7,56,55,63,61,C[C@@H]1Cc2cc(O)ccc2[C@@H](c2c(F)cc(N3CCC(C(=O)N4CCC(N5CCC6(CC5)COc5c6ccc6c5CN(C5CCC(=O)NC5=O)C6=O)CC4)CC3)cc2F)N1CC(F)F (some centres unmarked) [I2]
14.9,41,68,40,67,C[C@@H]1Cc2cc(O)ccc2C(c2c(F)cc(N3CCC4(CC3)CC(N3CCC(N5CCC6(CC5)COc5c6ccc6c5CN(C5CCC(=O)NC5=O)C6=O)[C@@H](F)C3)C4)cc2F)N1CC(F)F (some centres unmarked) [I3]
10.5,55,68,60,56,C[C@@H]1CN(C(=O)C2CCN(c3cc(F)c(C4c5ccc(O)cc5C[C@@H](C)N4CC(F)F)c(F)c3)CC2)CCC1N1CCC2(CC1)COc1c2ccc2c1CN(C1CCC(=O)NC1=O)C2=O (some centres unmarked) [I5]
6.57,56,65,57,45,C[C@@H]1Cc2cc(O)ccc2C(c2c(F)cc(N3CCN(C[C@H]4CC[C@H](C(=O)N5CCC6(CC5)COc5c6ccc6c5CN(C5CCC(=O)NC5=O)C6=O)CC4)CC3)cc2F)N1CC(F)F (some centres unmarked) [I6]
303000,37,67,21,41,O=C1CCC(N2Cc3c(ccc4c3OCC43CCN(c4ccc(C(=O)N5CCN(c6ccc([C@@H]7c8ccc(O)cc8CC[C@@H]7c7ccccc7)cc6)CC5)cn4)CC3)C2=O)C(=O)N1 (some centres unmarked) [J2]
8.23,42,63,34,49,O=C1CCC(N2Cc3c(ccc4c3OCC43CCN(c4ccc(C(=O)N5CCN(c6ccc([C@@H]7c8ccc(O)cc8CC[C@@H]7c7ccccc7)cc6)CC5)nc4)CC3)C2=O)C(=O)N1 (some centres unmarked) [J3]
22.6,8,51,32,60,O=C1CCC(N2Cc3c(ccc4c3OCC43CCN(C4C5CCC4CN(C(=O)C4CCN(c6ccc([C@@H]7c8ccc(O)cc8CC[C@@H]7c7ccccc7)cc6)CC4)C5)CC3)C2=O)C(=O)N1 (some centres unmarked) [J4]
4.63,46,81,40,78,O=C1CCC(N2Cc3c(ccc4c3OCC43CCN(C4CCN(CC5CCN(c6ccc([C@@H]7c8ccc(O)cc8CC[C@@H]7c7ccccc7)cc6)CC5)CC4F)CC3)C2=O)C(=O)N1 (some centres unmarked) [J5]
9.31,39,81,52,68,O=C1CCC(N2Cc3c(ccc4c3OCC43CCN([C@@H]4CCN(CC5CCN(c6ccc([C@@H]7c8ccc(O)cc8CC[C@@H]7c7ccccc7)cc6)CC5)C[C@@H]4F)CC3)C2=O)C(=O)N1 (some centres unmarked) [J6]
486,16,67,29,75,COC(=O)[C@H]1CC(N2CCC3(CC2)COc2c3ccc3c2CN(C2CCC(=O)NC2=O)C3=O)CCN1CC1CCN(c2ccc([C@@H]3c4ccc(O)cc4CC[C@@H]3c3ccccc3)cc2)CC1 (some centres unmarked) [J7]
4.89,79,81,78,85,O=C1CCC(N2Cc3c(ccc4c3OCC43CCN(C(=O)C4CCN(CC5CCN(c6ccc([C@@H]7c8ccc(O)cc8CC[C@@H]7c7ccccc7)cc6)CC5)CC4)CC3)C2=O)C(=O)N1 (some centres unmarked) [J8]
5.64,78,83,63,69,O=C1CCC(N2Cc3c(ccc4c3OCC43CCN(C(=O)C4CN(CC5CCN(c6ccc([C@@H]7c8ccc(O)cc8CC[C@@H]7c7ccccc7)cc6)CC5)C4)CC3)C2=O)C(=O)N1 (some centres unmarked) [J9]
6.12,70,88,50,73,CN(CC(=O)N1CCC2(CC1)COc1c2ccc2c1CN(C1CCC(=O)NC1=O)C2=O)CC1CCN(c2ccc([C@@H]3c4ccc(O)cc4CC[C@@H]3c3ccccc3)cc2)CC1 (some centres unmarked) [J10]
4370,52,82,40,75,C[C@@H]1Cc2c(ccc3[nH]ncc23)C(c2ccc(N3CCC4(CCN(CC(=O)N5CCC6(CC5)COc5c6ccc6c5CN(C5CCC(=O)NC5=O)C6=O)C4)CC3)cn2)N1CC(F)(F)F (some centres unmarked) [J11]
